This is an account of results in patent US20180207138A1, “METHODS FOR THE TREATMENT OF TREMORS BY POSITIVE MODULATION OF SK CHANNELS” (Cadent Therapeutics, Inc., priority 2017, published 2018).

For data set [1] the following is noted: male, Sprague Dawley, rat, in vivo; for Measured Brain Concentration: po.
Experimental: (§1) It is calculated as follows: CFB=CMB×BFF, where CMB is the concentration of compound measured by mass spectrometry from brains harvested immediately following tremor recording (Table 1, “Measured Brain Concentration”). CFB is the amount of free compound not complexed with protein and therefore free to interact with the SK2 channel (Table 1, “Calculated Free Brain Concentration”). BFF is average free fraction of compound as measured by equilibrium dialysis (Table 1, “Brain Free Fraction”). This was performed by using 1 μM of compound with 10% brain tissue homogenate in phosphate buffer saline. Incubation time was 5 hours at 37° C. and detection was by LC-MS/MS. Reference compound was carbazepine. Free drug in brain available to interact with SK2 channels (CFB) is arrived at by multiplying the measured total brain level (CMB) by the average free fraction (BFF).
Data set [2] in a line: in vitro. Conditions: brain homogenate.
Experimental: as §1
Data set [3] has as its system Harmaline-induced tremor. Particulars: for inhibition of tremors (tremor events): FIG. 1; for Minimally Efficacious Dose: oral dosing 30 min before 10 mg/Kg ip Harmaline, tremor events over 60 min. On the procedure: The structure of each of these compounds is duplicated below.
Animals were administered with either Vehicle or compound (orally) 30 minutes prior to Harmaline administration (t=−30 minutes). Animals were then dosed ip with 10 mg/Kg Harmaline HCl in isotonic saline (t=0 minutes). Immediately following Harmaline administration, animals were monitored for 1 hour (t=0-60 minutes) to quantify the number of tremor events.
Tremor events were quantified via automated capture of forelimb tremor activity and confirmed by visual observation. Prior to testing, animals were fitted with a small metal band (0.5 g) on the right forepaw and acclimated to the testing apparatus for one hour. Immediately following Harmaline administration, animals were placed in the testing apparatus and tremor events were quantified for 60 minutes. A tremor event signal was generated when the transmitter band on the animal moved within the electromagnetic field generated by a loop antenna within the testing apparatus. Outputs from the amplifier were digitized at a sampling rate of 1,000 Hz and the signal was processed and analyzed using LabView software (National Instruments). […] Data were analyzed in one-minute bins over the course of the test and presented as the sum of tremor events over the entire 60 minute test.

In data set [4] the test system is harmaline-induced tremor. Particulars: for tremor, power spectrum in 10-14 Hz band: 5 mg/kg ip harmaline, 30 minutes; for percent Motion Power (% MP): FIG. 3. On the procedure: Whole body tremor was measured by a San Diego Instruments Tremor Monitor (San Diego, Calif., USA). […] Tremor was measured for 30 minutes following harmaline administration, and data were analyzed by fast Fourier transform and reported as a frequency power spectrum. […] Data were further analyzed by calculating the percent Motion Power (% MP), defined as the power in the 9-13 Hz band divided by the total power across the spectrum (0-30 Hz) multiplied by 100.

Read-outs that look alike come from different tables or passages of the source.

As for `Cc1cc(C)n(-c2nc(NC3CCC(F)(F)CC3)cc(N3CCOCC3)n2)n1` [Compound 1], in data set [1], the “Calculated Free Brain Concentration” value was 0.15 µM and the “Measured Brain Concentration” value was 3.1 µM. This compound showed a fraction unbound at 5 h, 1 μM in data set [2] of 0.048. The “inhibition of tremors (tremor events)” value in data set [3] (60 mg/Kg orally) is listed as “significant inhibition of tremors”. In addition, in data set [3], the “Minimally Efficacious Dose” value came out at 60 mg/kg.
Regarding `Cc1ccn(-c2nc(NC3CCC(F)(F)CC3)cc(N3CCOCC3)n2)n1` [Compound 2], the “Calculated Free Brain Concentration” value in data set [1] is 0.08 µM. Besides, the “Measured Brain Concentration” value in data set [1] was 1.3 µM. In addition, the “tremor, power spectrum in 10-14 Hz band” value in data set [4] (3 mg/kg orally), in data set [4] (10 mg/kg orally) and in data set [4] (30 mg/kg orally) was “significantly reduced tremor” each time. In addition, the “percent Motion Power (% MP)” value in data set [4] (3 mg/kg orally, n=8, P<0.01 vs harmaline+vehicle) is recorded as “significantly reduced harmaline-induced tremor”; in data set [4] (10 mg/kg orally, n=16, P<0.05 vs harmaline+vehicle), “significantly reduced harmaline-induced tremor”; in data set [4] (30 mg/kg orally, n=13, P<0.05 vs harmaline+vehicle), “significantly reduced harmaline-induced tremor”. For the same compound, in data set [3] (30 mg/Kg orally), the “inhibition of tremors (tremor events)” value is listed as “significant inhibition of tremors”. In data set [3], the “Minimally Efficacious Dose” value is 30 mg/kg.
